Experimental data as given in PubChem BioAssay AID190 (DTP/NCI, 2004).
“And” between values parts separate entries of the source, which are not always exact repeats. Equal values may be shown once. Inconclusive results and toxic doses are left out. How the source made its calls: active means survival T/C of 150% or more; inactive means T/C below 125% in these data.

Test system: AKR/Lw mice, AKR lymphoma ip, median survival T/C
Experiment: NCI In Vivo Anticancer Drug Screen. Data for tumor model Lymphoma AKR (Transplanted) (intraperitoneal) in AKR/Lw mice
Settings: endpoint: median survival time, higher = longer survival
Description: The antitumor activity of compounds was measured in mice bearing transplantable tumors. Survival or tumor size were measured and the results are expressed as the measurement made in the treated group (T) divided by the measurement made in the vehicle treated control group (C). The tumor model used in this assay is Lymphoma AKR (Transplanted) (intraperitoneal) in AKR/Lw mice

[1] = dose: 200.0 mg/kg/injection, schedule: Q01DX001 (sc), vehicle: steriod suspending solution
[2] = dose: 100.0 mg/kg/injection, schedule: Q01DX001 (ip), vehicle: saline

Measured: T/C

C[C@]12C=CC(=O)C=C1CC[C@@H]1[C@@H]2C(=O)C[C@@]2(C)[C@H]1CC[C@]2(O)C(=O)CO
inactive: dose: 1.5 mg/kg/injection, schedule: Q ##X008 (sc), vehicle: steriod suspending solution 108 % of control | dose: 1.5 mg/kg/injection, schedule: Q## X008 (sc), vehicle: steriod suspending solution 108 % of control | dose: 3.0 mg/kg/injection, schedule: Q ##X008 (sc), vehicle: steriod suspending solution 109 % of control | dose: 3.0 mg/kg/injection, schedule: Q## X008 (sc), vehicle: steriod suspending solution 109 % of control | dose: 5.0 mg/kg/injection, schedule: Q01DX009 (sc), vehicle: steriod suspending solution 97 % of control | dose: 6.0 mg/kg/injection, schedule: Q ##X008 (sc), vehicle: steriod suspending solution 106 % of control | dose: 6.0 mg/kg/injection, schedule: Q## X008 (sc), vehicle: steriod suspending solution 106 % of control | dose: 10.0 mg/kg/injection, schedule: Q01DX009 (sc), vehicle: steriod suspending solution 100 % of control | dose: 12.0 mg/kg/injection, schedule: Q ##X008 (sc), vehicle: steriod suspending solution 120 % of control | dose: 12.0 mg/kg/injection, schedule: Q## X008 (sc), vehicle: steriod suspending solution 120 % of control | dose: 12.5 mg/kg/injection, schedule: Q01DX001 (sc), vehicle: steriod suspending solution 108 % of control | dose: 12.5 mg/kg/injection, schedule: Q01DX008 (sc), vehicle: steriod suspending solution 94 % of control | dose: 12.5 mg/kg/injection, schedule: Q04DX003 (sc), vehicle: steriod suspending solution 112 % of control | dose: 12.5 mg/kg/injection, schedule: Q## X008 (sc), vehicle: steriod suspending solution 94 % of control | dose: 15.0 mg/kg/injection, schedule: Q04DX002 (sc), vehicle: water 96 % of control | dose: 20.0 mg/kg/injection, schedule: Q01DX009 (sc), vehicle: steriod suspending solution 108 % of control | dose: 25.0 mg/kg/injection, schedule: Q01DX001 (sc), vehicle: steriod suspending solution 108 % of control and 113 % of control | dose: 25.0 mg/kg/injection, schedule: Q01DX004 (sc), vehicle: steriod suspending solution 115 % of control | dose: 25.0 mg/kg/injection, schedule: Q01DX008 (sc), vehicle: steriod suspending solution 119 % of control | dose: 25.0 mg/kg/injection, schedule: Q01DX009 (sc), vehicle: Klucel (hydroxypropylcellulose) (HPC) 96 % of control | dose: 25.0 mg/kg/injection, schedule: Q01DX009 (sc), vehicle: steriod suspending solution 100 % of control | dose: 25.0 mg/kg/injection, schedule: Q04DX002 (sc), vehicle: steriod suspending solution 99 % of control and 100 % of control | dose: 25.0 mg/kg/injection, schedule: Q04DX003 (sc), vehicle: steriod suspending solution 87 % of control | dose: 25.0 mg/kg/injection, schedule: Q## X008 (sc), vehicle: steriod suspending solution 120 % of control | dose: 30.0 mg/kg/injection, schedule: Q04DX002 (sc), vehicle: water 94 % of control and 98 % of control | dose: 35.0 mg/kg/injection, schedule: Q01DX001 (sc), vehicle: steriod suspending solution 96 % of control | dose: 45.0 mg/kg/injection, schedule: Q01DX001 (sc), vehicle: steriod suspending solution 105 % of control | dose: 50.0 mg/kg/injection, schedule: Q01DX004 (sc), vehicle: steriod suspending solution 100 % of control | dose: 50.0 mg/kg/injection, schedule: Q01DX008 (sc), vehicle: steriod suspending solution 101 % of control | dose: 50.0 mg/kg/injection, schedule: Q01DX009 (ip), vehicle: water 115 % of control | dose: 50.0 mg/kg/injection, schedule: Q01DX009 (sc), vehicle: steriod suspending solution 110 % of control | dose: 50.0 mg/kg/injection, schedule: Q04DX002 (sc), vehicle: steriod suspending solution 109 % of control | dose: 50.0 mg/kg/injection, schedule: Q04DX003 (sc), vehicle: steriod suspending solution 100 % of control and 108 % of control and 112 % of control | dose: 50.0 mg/kg/injection, schedule: Q## X008 (sc), vehicle: steriod suspending solution 101 % of control | dose: 60.0 mg/kg/injection, schedule: Q04DX002 (sc), vehicle: water 110 % of control and 111 % of control | dose: 75.0 mg/kg/injection, schedule: Q01DX001 (sc), vehicle: steriod suspending solution 100 % of control | dose: 75.0 mg/kg/injection, schedule: Q04DX002 (sc), vehicle: steriod suspending solution 106 % of control | dose: 90.0 mg/kg/injection, schedule: Q01DX001 (sc), vehicle: steriod suspending solution 114 % of control | dose: 100.0 mg/kg/injection, schedule: Q01DX004 (sc), vehicle: steriod suspending solution 113 % of control | dose: 100.0 mg/kg/injection, schedule: Q01DX008 (sc), vehicle: steriod suspending solution 78 % of control | dose: 100.0 mg/kg/injection, schedule: Q01DX009 (ip), vehicle: water 118 % of control | dose: 100.0 mg/kg/injection, schedule: Q01DX009 (sc), vehicle: steriod suspending solution 102 % of control | dose: 100.0 mg/kg/injection, schedule: Q04DX002 (sc), vehicle: steriod suspending solution 110 % of control | dose: 150.0 mg/kg/injection, schedule: Q04DX003 (ip), vehicle: saline 92 % of control | dose: 150.0 mg/kg/injection, schedule: Q04DX003 (sc), vehicle: steriod suspending solution 105 % of control and 118 % of control and 121 % of control | dose: 180.0 mg/kg/injection, schedule: Q01DX001 (sc), vehicle: steriod suspending solution 120 % of control | [1] 93 % of control and 102 % of control (2×) | dose: 200.0 mg/kg/injection, schedule: Q01DX009 (sc), vehicle: steriod suspending solution 89 % of control | dose: 300.0 mg/kg/injection, schedule: Q04DX003 (ip), vehicle: saline 95 % of control | dose: 300.0 mg/kg/injection, schedule: Q04DX003 (sc), vehicle: steriod suspending solution 114 % of control and 115 % of control (2×) | dose: 400.0 mg/kg/injection, schedule: Q04DX003 (sc), vehicle: steriod suspending solution 95 % of control | dose: 500.0 mg/kg/injection, schedule: Q01DX001 (sc), vehicle: steriod suspending solution 95 % of control | dose: 600.0 mg/kg/injection, schedule: Q01DX001 (sc), vehicle: steriod suspending solution 102 % of control

CC(=O)C1CCC2C3CCC4CC(O)CCC4(C)C3CCC12C#N (configuration not stated)
inactive: dose: 100.0 mg/kg/injection, schedule: Q01DX001 (sc), vehicle: steriod suspending solution 104 % of control | [1] 106 % of control | dose: 400.0 mg/kg/injection, schedule: Q01DX001 (sc), vehicle: steriod suspending solution 95 % of control

CC(C)(CCCl)NCc1ccccc1
inactive: [2] 102 % of control

COc1cc2c(c3c1c(=O)c1ccccc1n3C)C=CC(C)(C)O2
inactive: dose: 16.0 mg/kg/injection, schedule: Q01DX010 (ip), vehicle: Klucel (hydroxypropylcellulose) (HPC) 106 % of control | dose: 31.25 mg/kg/injection, schedule: Q01DX010 (ip), vehicle: Klucel (hydroxypropylcellulose) (HPC) 103 % of control | dose: 36.0 mg/kg/injection, schedule: Q03HX024 (ip), vehicle: Klucel (hydroxypropylcellulose) (HPC) 120 % of control | dose: 62.5 mg/kg/injection, schedule: Q01DX010 (ip), vehicle: Klucel (hydroxypropylcellulose) (HPC) 122 % of control | dose: 62.5 mg/kg/injection, schedule: Q03HX024 (ip), vehicle: Klucel (hydroxypropylcellulose) (HPC) 115 % of control | dose: 125.0 mg/kg/injection, schedule: Q03HX024 (ip), vehicle: Klucel (hydroxypropylcellulose) (HPC) 115 % of control | dose: 360.0 mg/kg/injection, schedule: Q04DX003 (ip), vehicle: Klucel (hydroxypropylcellulose) (HPC) 122 % of control

COC(=O)C1(C)CCC(c2ccc(C)cc2)=C(CC(=O)O)C1 (configuration not stated)
inactive: [2] 97 % of control | dose: 200.0 mg/kg/injection, schedule: Q01DX001 (ip), vehicle: saline 94 % of control | dose: 400.0 mg/kg/injection, schedule: Q01DX001 (ip), vehicle: saline 94 % of control
